Tested on: p-388 (linfocitic leukemia)
Test: biological activity on P-388 leukemia cultures
Type: cell-based

O=C1c2c(O)cc(O)cc2O[C@H](c2ccc(O)c(O)c2)[C@H]1O [taxifoline]
anticarcinogenic activity on P-388 cultures (leufocytic leukemia): has shown anticarcinogenic activity
